The values that follow come from the NIST ThermoML archive (doi:10.1021/je400493x).

The term mass density denotes mass per unit of volume. In general, viscosity refers to the internal friction of a fluid under shear.

Each structure is given as a SMILES string. ± gives the expanded uncertainty stated by the source.

The conditions of series [1]: 298.15 K; 100 kPa; Liquid.
Series [2] in a line: xn = mol fraction of the nth substance listed. The note with it: 298.15 K, 100 kPa, Liquid.
The conditions of series [3]: 298.15 K, Liquid mixture 1, Drop volume.

Regarding `CCCCCCCCCCCC` [dodecane], in series [1], the mass density is on record as 745.29 ± 4.2 kg/m3 and the viscosity was found to be 1.347 ± 0.033 mPa·s.

Turning to `CCCCCCCCCCCC` [dodecane] + CC(C)CCOP(=O)(OCCC(C)C)OCCC(C)C, in series [2] (x2 = 0), the mass density was determined as 745.29 ± 4.2 kg/m3 and the viscosity is 1.347 ± 0.033 mPa·s.

With `CCCCCCCCCCCC` [dodecane] + O, the interfacial tension in series [3] (100 kPa) is 52.6 ± 0.8 mN/m.

As to `CC(C)CCOP(=O)(OCCC(C)C)OCCC(C)C` [triisopentyl phosphate], in series [1], the mass density is reported as 946.95 ± 1.8 kg/m3 and the viscosity was 4.267 ± 0.076 mPa·s.

For `CC(C)CCOP(=O)(OCCC(C)C)OCCC(C)C` [triisopentyl phosphate] + CCCCCCCCCCCC, the mass density is 765.49 ± 4 kg/m3 in series [2] (x1 = 0.0999); 785.78 ± 3.7 kg/m3 in series [2] (x1 = 0.1998); 805.91 ± 3.5 kg/m3 in series [2] (x1 = 0.3001); 826.05 ± 3.2 kg/m3 in series [2] (x1 = 0.4002); 846.25 ± 3 kg/m3 in series [2] (x1 = 0.5001); 866.75 ± 2.7 kg/m3 in series [2] (x1 = 0.5999). In addition, the mass density in series [2] (x1 = 0.7002) is 888.26 ± 2.5 kg/m3; in series [2] (x1 = 0.7998), 909.12 ± 2.2 kg/m3; in series [2] (x1 = 0.9001) it was 929.41 ± 2 kg/m3; in series [2] (x1 = 1), 946.95 ± 1.8 kg/m3. Moreover, the viscosity in series [2] (x1 = 0.0999) amounted to 1.488 ± 0.035 mPa·s; in series [2] (x1 = 0.1998), 1.678 ± 0.037 mPa·s; in series [2] (x1 = 0.3001), 1.896 ± 0.04 mPa·s; in series [2] (x1 = 0.4002), 2.119 ± 0.043 mPa·s; in series [2] (x1 = 0.5001) it was 2.391 ± 0.047 mPa·s; in series [2] (x1 = 0.5999), 2.674 ± 0.051 mPa·s. Moreover, the viscosity in series [2] (x1 = 0.7002) amounted to 3.015 ± 0.056 mPa·s; in series [2] (x1 = 0.7998) it was 3.375 ± 0.062 mPa·s; in series [2] (x1 = 0.9001), 3.804 ± 0.068 mPa·s; in series [2] (x1 = 1), 4.267 ± 0.076 mPa·s.

As for `CC(C)CCOP(=O)(OCCC(C)C)OCCC(C)C` [triisopentyl phosphate] + O, in series [3] (101 kPa), the interfacial tension is 14.4 ± 0.8 mN/m.
